Results taken from patent US10807960B2, “Compounds, compositions, and methods for controlling biofilms” (KATHOLIEKE UNIVERSITEIT LEUVEN, priority 2015, dated 2020).
Read-outs that look alike come from different tables or passages of the source.

Assays:
osteoblasts (OB) [1] = experiment: osteogenic differentiation, calcium and DNA assay; assay type: cell-based, human; settings: 12.5 μM, calcium content normalized by DNA, versus solvent control
Method: (§1) The effect on osteogenic differentiation potential was assessed as previously described. Only the substances that allowed survival of the cells for more than 3 weeks, which is the time needed for mature osteogenic differentiation, were tested. Briefly, osteoblasts and bone-marrow derived mesenchymal stem cells were cultured in a positive solvent control (osteogenic medium with 0.5% DMSO or ethanol background), a negative control (medium without osteogenic supplements) and treated samples (osteogenic medium, 0.5% DMSO or ethanol background and 12.5 μM of test compound) with four repeats per condition. Mesenchymal stem cells and osteoblast cell cultures were harvested after 3 or 5 weeks, respectively, for the calcium and DNA assay.
(§2) Calcium deposition of osteoblasts and mesenchymal stem cells was measured with the Calcium CPC LiquiColor test (Stanbio Laboratory, Boerne, Tex.) as previously described. Briefly, cell cultures were extracted with 5% trichloroacetic acid (500 μl per sample), O-cresolphtalein complex was added, and the calcium content was determined spectrophotometrically at 550 nm. DNA content was determined as previously described. DNA values were used to normalize the calcium content. Four wells per condition were examined, and two samples from each well were taken for each assay.

[2] = system: bone-marrow derived mesenchymal stem cells (MSC); experiment: osteogenic differentiation, calcium and DNA assay; assay type: cell-based, human; settings: 12.5 μM, calcium content normalized by DNA, versus solvent control
Method: as §1, §2

osteoblasts (OB) [3] = experiment: metabolic activity, MTT staining; assay type: cell-based; settings: 12.5 μM, 6 days treatment
Method: (§3) Cell viability of two human primary cell types, namely, osteoblasts (OB) and bone-marrow derived mesenchymal stem cells (MSC) was tested according to the ISO 10993-5 standard, as previously described. Briefly, cells were seeded in 96-well tissue culture test plates (TPP, Switzerland) at 5×10^3 cells/cm^2 in Advanced DMEM cell culture media supplemented with 10% serum, 1× GlutaMAX, 0.05 mg/mL Gentamycin, and were allowed to attach overnight. The next day, the cells were exposed to (i) cell culture medium and medium with the corresponding control (0.5% ethanol or DMSO) (negative controls), (ii) medium with 0.05% phenol (cytotoxic control), and (iii) medium with compounds (12.5 μM) and incubated for 2 h, 48 h and 6 days (8 repeats for each condition). At each time-point the numbers of viable and dead cells were determined directly by trypan blue staining, and indirectly by measuring the metabolic activity with MTT (3-(4,5-dimethylthiazol-2-yl)-2,5-diphenyltetrazolium bromide) staining.
(§4) The medium was removed from the wells and 100 μl of medium, supplemented with 10% serum and 0.5 mg/mL MTT was added to the cells. The cells were incubated overnight at 37° C. and 5% CO2. The next day the medium with MTT was removed and 100 μl acidic isopropanol was added. The cells were then centrifuged at 2300 g and 50 μl of the supernatant was transferred to a new 96-well plate. The absorbance was measured at 570 nm and the background was measured at 660 nm. Four wells per condition were examined.

[4] = system: bone-marrow derived mesenchymal stem cells (MSC); experiment: metabolic activity, MTT staining; assay type: cell-based; settings: 12.5 μM, 6 days treatment
Method: as §3, §4

osteoblasts (OB) [5] = experiment: mammalian-cell viability assay, trypan blue staining; assay type: cell-based; settings: 12.5 μM; for proliferation (in words): 6 days exposure
Method: as §3
(§5) The medium was removed from the wells, and 1/3 trypan blue in Dulbecco's modified Eagle's medium (DMEM) was added to the cells, incubated for 3 min, after which trypan blue was removed and DMEM medium was added to the wells. In each of four wells, two microscopy fields were counted for viable (transparent) and dead (blue) cells.

[6] = system: C. albicans SC5314 + S. epidermidis; experiment: mixed C. albicans/S. epidermidis biofilm assay, selective plating; assay type: cell-based, Candida albicans; Staphylococcus epidermidis; settings: for activity at 25 µM: 25 μM (Table 5); for activity at 100 µM: 100 μM (Table 5)
Method: The concentrations 25 μM (0.0625% DMSO or ethanol) and 100 μM (0.25% DMSO or ethanol) were tested. After 24 h of incubation at 37° C., biofilms were washed with PBS and fresh medium with or without compounds was added. After further incubation for 48 h at 37° C., the biofilms were washed with PBS after which the cells were re-suspended in 100 μl of PBS by scraping off, sonication (1 min, 45 kHz, USC300-T; VWR, Radnor, Pa., USA) and vigorously pipetting up-and-down. Finally, the biofilm cells were diluted in PBS and plated on YPD agar plates containing 100 mg/L ampicillin and TSA plates containing 25 mg/L amphotericin B, to determine the number of fungal and bacterial CFUs after 2 days of incubation at 37° C., respectively. The percentage of C. albicans SC5314 and S. epidermidis cells was determined relative to the DMSO or ethanol control treatment.

C. albicans SC5314 = experiment: inhibition of C. albicans biofilms, cell titer blue (CTB) quantification; assay type: cell-based, Candida albicans; settings: for anti-biofilm activity (in words): monospecies biofilm, novel compounds: highest concentration tested 100 μM
Method: The potential of the compounds to prevent C. albicans SC5314 biofilm formation was assessed using the cell titer blue (CTB) quantification method (26). For the CTB method, an overnight culture of C. albicans SC5314 was washed with PBS and a cell suspension of 10^6 cells/ml (OD600=0.1) was prepared in RPMI 1640 medium (pH 7.0). […] After 16 h of static incubation at 37° C., biofilms were washed and quantified with CTB as described previously.

E. coli TG1 = experiment: static peg (Calgary Biofilm Device) anti-biofilm assay, crystal violet and OD600; settings: for IC50: 37° C.
[7] = system: bone-marrow derived mesenchymal stem cells (MSC); experiment: mammalian-cell viability assay, trypan blue staining; assay type: cell-based; settings: 12.5 μM, 6 days exposure
Method: as §3, §5

[8] = system: E. coli TG1 + P. aeruginosa PA14; experiment: mixed E. coli/P. aeruginosa biofilm assay, crystal violet; assay type: cell-based; settings: for IC50: 37° C. (Table 3)
Method: Overnight cultures of E. coli TG1 and P. aeruginosa PA14, were diluted 1/100 in the same vial of TSB 1/20 to form a mixed culture suspension.

S. liquefaciens MG44 = experiment: static peg (Calgary Biofilm Device) anti-biofilm assay, crystal violet and OD600; assay type: cell-based, Serratia liquefaciens; settings: 25° C.
B. cepacia LMG1222T = experiment: as above; settings: 25° C.
P. gingivalis ATCC33277 = experiment: as above; settings: 37° C.
S. epidermidis = experiment: as above; settings: 37° C.
S. aureus ATCC6538 = experiment: as above; settings: 37° C.
S. aureus SH1000 = experiment: as above; settings: 37° C.
S. Typhimurium ATCC14028 = experiment: as above; settings: read-out: BIC50; biofilm formation, 25° C.
[9] = system: S. aureus ATCC6538 + S. epidermidis; experiment: mixed S. aureus/S. epidermidis biofilm assay, crystal violet; assay type: cell-based; settings: 37° C. (Table 3)
Method: Overnight cultures of S. aureus ATCC6538 and S. epidermidis were grown in LB medium and were diluted 1/200 in the same vial of TSB to form a mixed culture suspension.

P. aeruginosa PA14 = experiment: static peg (Calgary Biofilm Device) anti-biofilm assay, crystal violet and OD600
[10] = C. albicans in mixed biofilm with S. epidermidis, read-out: CFUs % survival C.a.
[11] = S. epidermidis in mixed biofilm with C. albicans, read-out: CFUs % survival S.c.
[12] = S. epidermidis in mixed biofilm with C. albicans, read-out: CFUs % survival Se.
[13] = read-out: BIC50, biofilm formation
[14] = mixed biofilm formation, read-out: BIC50
[15] = planktonic growth of mixed culture, read-out: IC50

For CCCCCCCCn1c(-c2ccc(Br)cc2)cnc1NCC(C)C [Compound 8c, 5-(4-bromophenyl)-N-isobutyl-1-octyl-1H-imidazol-2-amine], which “calcium deposition (in words)” value (osteoblasts (OB) [1]) is on record?
The value was “induced the calcium deposition”.

What about the “calcium deposition (in words)” value [2] of the same molecule?
The value was “induced the calcium deposition”.

What about the “metabolic activity compared to the solvent control (in words)” value (osteoblasts (OB) [3]) of the same molecule?
The value was “increased”.

What about the “metabolic activity compared to the solvent control (in words)” value [4] of the same molecule?
The value was “increased”.

What about the “proliferation (in words)” value (osteoblasts (OB) [5]) of the same molecule?
The value was “increase in proliferation”.

And the “cell viability (in words)” value (osteoblasts (OB) [5]; 6 days of exposure, trypan blue)?
The value was “very slightly reduced viability”.

And the “effect on the C. albicans/S. epidermidis mixture (in words)” value [6]?
Its value is “only reduced C. albicans”.

What about the activity at 25 µM [6, 10] of the same molecule?
Its activity at 25 µM is 3.2%.

What about the activity at 100 µM [6, 10] of the same molecule?
The activity at 100 µM was 8.4%.

And the “anti-biofilm activity (in words)” value (C. albicans SC5314)?
Its value is “not active”.

Which results are given for CCCCCCCCn1c(-c2ccc(Cl)cc2)cnc1NC1CCCC1 [Compound 8f, 5-(4-chlorophenyl)-N-cyclopentyl-1-octyl-1H-imidazol-2-amine]?
anti-biofilm activity (in words) (E. coli TG1; biofilm cells at 25° C.): potent activity; proliferation (in words) [7]: slightly reduced; inhibition of the mixed biofilm P. aeruginosa/E. coli (in words) [8]: at higher concentrations; activity at 25 µM [6, 10]: 2.9%; activity at 100 µM [6, 10]: 7.2%; activity at 25 µM [6, 11]: 2.5%; activity at 100 µM [6, 12]: 0.3%

How did the IC50 (S. liquefaciens MG44; biofilm formation, read-out: BIC50) turn out when CCCCNc1ncc(-c2ccc(Br)cc2)[nH]1 [Compound 4] was run?
Its IC50 is 4.4 µM.

What about the IC50 (S. liquefaciens MG44; planktonic growth, read-out: IC50) of the same molecule?
Its IC50 is 118 µM.

And the IC50 (B. cepacia LMG1222T; planktonic growth)?
The IC50 was > 400 µM.

What about the IC50 (B. cepacia LMG1222T; [13]) of the same molecule?
The IC50 was 189 µM.

What about the IC50 (P. gingivalis ATCC33277; planktonic growth) of the same molecule?
The IC50 was 8.2 µM.

And the IC50 (P. gingivalis ATCC33277; [13])?
Its IC50 is 3.7 µM.

And the IC50 (S. epidermidis; planktonic growth)?
Its IC50 is 54.4 µM.

And the IC50 (S. epidermidis; [13])?
Its IC50 is > 400 µM.

And the IC50 (S. aureus ATCC6538; planktonic growth)?
Its IC50 is 60.1 µM.

And the IC50 (S. aureus ATCC6538; [13])?
Its IC50 is ~12.3 µM.

And the IC50 (E. coli TG1; planktonic growth)?
The IC50 was 23 µM.

What about the IC50 (E. coli TG1; [13]) of the same molecule?
Its IC50 is 84.7 µM.

And the IC50 (S. aureus SH1000; planktonic growth)?
The IC50 was 89.4 µM.

What about the IC50 (S. aureus SH1000; [13]) of the same molecule?
The IC50 was 66.5 µM.

And the IC50 [8, 14]?
Its IC50 is 17.8 µM.

And the IC50 [8, 15]?
The IC50 was > 400 µM.

And the IC50 (S. Typhimurium ATCC14028)?
Its IC50 is 7.1 µM.

And the IC50 [9, 14]?
Its IC50 is 6.8 µM.

What about the IC50 [9, 15] of the same molecule?
The IC50 was ~118 µM.

What about the IC50 (P. aeruginosa PA14; planktonic growth, 37° C.) of the same molecule?
Its IC50 is > 400 µM.

What about the IC50 (P. aeruginosa PA14; read-out: BIC50, biofilm formation, 25° C.) of the same molecule?
Its IC50 is 9.8 µM.

And the IC50 (P. aeruginosa PA14; read-out: BIC50, biofilm formation, 37° C.)?
The IC50 was > 400 µM.

And the IC50 (C. albicans SC5314; biofilm formation, 37° C., read-out: BIC50)?
Its IC50 is 66.7 µM.

CCCCCCCCn1c(-c2ccc(Cl)c(Cl)c2)cnc1NC1CCCC1 [Compound 8h, 5-(3,4-dichlorophenyl)-N-cyclopentyl-1-octyl-1H-imidazol-2-amine] was tested. Which “calcium deposition (in words)” value (osteoblasts (OB) [1]) did it give?
The value was “induced the calcium deposition”.

And the “calcium deposition (in words)” value [2]?
Its value is “induced the calcium deposition”.

What about the “metabolic activity compared to the solvent control (in words)” value (osteoblasts (OB) [3]) of the same molecule?
Its value is “increased”.

What about the “metabolic activity compared to the solvent control (in words)” value [4] of the same molecule?
The value was “increased”.

What about the “proliferation (in words)” value (osteoblasts (OB) [5]) of the same molecule?
The value was “increase in proliferation”.

And the activity at 25 µM [6, 10]?
The activity at 25 µM was 6.7%.

And the activity at 100 µM [6, 10]?
The activity at 100 µM was 3.5%.

And the activity at 25 µM [6, 11]?
Its activity at 25 µM is 2%.

What about the activity at 100 µM [6, 12] of the same molecule?
The activity at 100 µM was 2.2%.

What about the “anti-biofilm activity (in words)” value (C. albicans SC5314) of the same molecule?
The value was “not active”.
